The target of the experiment is Protein-arginine deiminase type-4 (Homo sapiens, UniProt Q9UM07). Nature of the experiment: IC50 against protein arginine deiminase 4 – biochemical, fluorescence readout, dose response (AID 492970).

pIC50: −log10 of the molar value.

Sequence of Protein-arginine deiminase type-4 (Q9UM07 whole entry): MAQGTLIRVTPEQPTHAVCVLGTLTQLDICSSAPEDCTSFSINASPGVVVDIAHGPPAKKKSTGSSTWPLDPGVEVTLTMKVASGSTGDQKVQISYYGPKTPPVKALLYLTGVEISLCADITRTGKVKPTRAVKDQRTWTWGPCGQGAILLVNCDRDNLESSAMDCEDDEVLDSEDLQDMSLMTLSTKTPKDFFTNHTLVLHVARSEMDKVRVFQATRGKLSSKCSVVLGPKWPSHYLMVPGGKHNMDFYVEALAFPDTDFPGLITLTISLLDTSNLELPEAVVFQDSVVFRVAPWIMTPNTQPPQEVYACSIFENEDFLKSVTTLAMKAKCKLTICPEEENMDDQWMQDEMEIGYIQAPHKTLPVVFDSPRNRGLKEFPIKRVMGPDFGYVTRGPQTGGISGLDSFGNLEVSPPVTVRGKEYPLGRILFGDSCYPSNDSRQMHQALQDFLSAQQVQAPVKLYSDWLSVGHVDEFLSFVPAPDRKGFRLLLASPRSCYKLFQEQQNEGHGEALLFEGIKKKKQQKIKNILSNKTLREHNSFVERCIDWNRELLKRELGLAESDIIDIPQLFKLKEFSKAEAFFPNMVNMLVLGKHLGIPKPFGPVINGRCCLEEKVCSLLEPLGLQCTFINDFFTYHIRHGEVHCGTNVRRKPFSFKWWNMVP

For `O=C1NCC2=Nc3ccccc3NC(c3ccccc3)C12` (stereo unspecified) [MLS000106925], the pIC50 – broadly, the IC50 on a negative log10 scale, so that one unit is a factor of ten – is 4.00.
